Several values for one entry are separate records, joined by “and”; a condition that tells them apart may be missing. Equal values may be shown once. Read-outs that look alike come from different tables or passages of the source.
What was measured:
[1] = test system: zebrafish (D. rerio) embryos; assay: Zebrafish embryo heart rate screening assay; type: in vivo
Text: These embryos are transparent, allowing one to view, using a dissecting microscope with a 4-20 times power lense, the heart beat and resultant blood flow into the main vessel along the back and into the tail. Heart rate in these animals is an indicator of the metabolic activity of the organism, such that a reduction in the heart rate signifies a reduction in metabolism. Embryos were dissected from their egg casings and distributed five per well in flat bottomed polystyrene tissue culture plates and incubated in 1 mL of standard fish water. The fishwater is composed of 1 teaspoon Instant Ocean (artificial sea water mixture, Aquarium Systems, Inc.) per 5 gallons. Calcium chloride is adjusted to 150 ppm and sodium bicarbonate to ˜100 ppm.

mice [2] = type: in vivo, mouse (C57BL6/J)
Protocol: The same flow rates were used as described above (i.e., […] in a 0.5 L chamber).
Experiments were conducted to test the ability of a mouse in a ‘hibernation-like’ state to survive in conditions where it would normally die. The adverse condition was hypoxia, which the literature states that mice (C57BL6/J males) can live in for a maximum of 20 minutes at 5% Oxygen.
The hypoxic exposure was timed (indicated below) and viability of the mice was determined.

Drosophila melanogaster = assay: Anoxia tolerance of Drosophila melanogaster after CO2 / H2S treatment; type: in vivo; conditions: adult flies
Protocol: Adult flies were introduced into 35 mL tubes made of glass with a gas-tight rubber stopper (Balsh tubes). This was usually accomplished by anesthetizing flies with CO2, moving groups of flies to vials with food to recover for at least 2 hours, and then transferring them into the Balsh tube. To exchange the gaseous environment in the Balsh tube, two 18 gauge needles were inserted into the rubber stopper, and gas is blown into one of the needles at 100 mL/min. To prevent dessication, gasses were humidified by bubbling through 10 mL of water before passing it through the Balsch tube. The water in the bubbler is equilibrated with the gas for at least 20 minutes before starting the experiment.
For “stopped-flow” experiments, gas exchange proceeded for 60 minutes before sealing the tube. For “low-flow” experiments, gas flow continued throughout the experiment. CO2 was from the house source (100%), and anoxic environments were established by flushing out room air with 100% nitrogen (N2). Care was taken to prevent introduction of room air into the system while switching the atmosphere from CO2 to N2.
After anoxic treatment, oxygen was reintroduced into the Balsh tube by flushing with house air for 20 minutes. The rubber stopper was then removed and a food vial is inverted over the top of the Balsh tubes with Parafilm. […] Viability was scored at least 18 hours after the end of anoxic treatment. After two weeks, if the food vials contained larvae and/or pupae the flies were considered to be fertile.

rats [3] = type: in vivo, rat
Protocol: After surgical implantation of catheters and recovery, blood was removed from conscious animals in 40 minutes. […] Three hours after the end of the bleed, surviving animals were given one shed-blood volume of lactated ringers solution intravenously.

mice [4] = assay: Gas matrix: metabolic flexibility in altered gas environments, mice; type: in vivo, mouse; conditions: 0.01% in room air, ambient 7 to 10° C., 6-hour treatment
Protocol: (§1) Metabolic flexibility was evaluated in mice rats and dogs using altered gas environments. Three parameters were used to define this reduction in metabolism including changes in carbon dioxide production, oxygen consumption measured by respirometry, and core temperature as measured using telemetry. In experiments with mice and rats the animals were placed into sealed chambers with one gas import and one gas export. For dogs a mask was placed over the snout of the animal with two hoses (import and export) attached to the mask. The flow rate of gas for each of the animals mice—500 cc per minute, rats—2 liters per minute, and dogs 40 liters per minute. Each atmosphere was constructed from compressed gas by dilution into room air unless otherwise noted. For rat and mouse experiments the ambient temperature was 7 to 10° C. during exposure to the test gases. For dogs ambient temperature was room temperature (22° C.).
(§2) Evidence of depression in metabolic rate of greater than 5-fold as judged by carbon dioxide production or oxygen consumption during a 6-hour treatment is described by “Yes”; […]; “N/D” denotes experiments not done. The temperature drop in the dog experiment (Carbon dioxide+low oxygen+Helium) was approximately 1.5° C. over the course of 30 minutes of exposure. This drop in temperature was considered significant because the dog was 12 kg and no such temperature drop was seen during extensive baseline recording of the animal in room air.

rats [5] = assay: Gas matrix: metabolic flexibility in altered gas environments, rats; type: in vivo, rat; conditions: 0.03% in room air, ambient 7 to 10° C., 6-hour treatment
Protocol: as §1, §2

dogs = assay: Gas matrix: metabolic flexibility in altered gas environments, dogs; type: in vivo, dog; conditions: 0.85% in room air, mask, room temperature (22° C.)
Protocol: as §1, §2

mice [6] = assay: Cyanide exposure experiment in mice; type: in vivo, mouse; conditions: 80 ppm in room air at room temperature
Protocol: To measure metabolic effects of HCN, mice were exposed to increasing concentrations of HCN starting at 1 ppm. Oxygen (O2) consumption, carbon dioxide (CO2) production, body core temperature (BCT) and behavior were measured or evaluated. […]. A metabolic effect is defined as a 10% change in less than 10 minutes in any of the assay values described above.

rats [7] = test system: rats
Protocol: On the day of the experiment, catheters were surgically implanted into the right femoral artery and vein. Catheters exited behind scapulae. Rats were administered buprenorphine post-surgically and allowed to recover.
The anti-coagulant drug heparin (80-100 units) was administered intravenously as a bolus to decrease the clotting ability of the blood and enhance hemorrhage. […] Catheters, temperature probe, and gas sampling tube were passed through a hole drilled in the middle of the lid. Temperature was maintained at approximately isothermal temperature (27+/−2° C.).
The hemorrhage model was defined by the removal of 60% of total body blood over the course of a 40 minute bleed. Blood was removed using a peristaltic pump.
Blood was removed at the calculated rate via the femoral catheter artery. Blood was weighed as it was removed.
Metabolic rate was determined by measuring CO2 production (Licor Li7000). Temperature and CO2 data were collected (ADI PowerLab). Arterial blood values were measured (I-Stat blood chemistry analyzer). Following the bleed, animals were placed in a cage for three hours and observed. At the end of three hours, surviving rats were given lactated ringers ad libitum. For non-surviving animals, time of death was declared when animals stopped breathing and CO2 production ceased. […]

C. elegans nematodes = conditions: in vivo
[8] = in vivo; cited from earlier work

S [H2S, hydrogen sulfide]
heart rate after recovery ([1]; 24 hours after initial exposure, solution replaced with normal fishwater after five hours): 160-200 beats per minute | heart beats ([1]; 48 hour old embryos, hydrogen sulfide-containing fishwater (approximately 0.1 molar), 2-3 hours following exposure): 60-80 beats per minute | Time in Hypoxia (mice [2]; ambient 20° C., 5 hrs in 80 ppm H2S prior, 4% oxygen, result life): 28 min | Time in Hypoxia (mice [2]; ambient 20° C., 5 hrs in 80 ppm H2S prior, 5.00% oxygen, result life): 60 min | Time in Hypoxia (mice [2]; ambient 20° C., 5 hrs in 80 ppm H2S prior, 5.20% oxygen, result life): 11 min | Time in Hypoxia (mice [2]; ambient 20° C., 5.5 hrs in 80 ppm H2S prior, 5.00% oxygen, result life): 25 min | Time in Hypoxia (mice [2]; ambient 24° C., 80 ppm H2S simultaneous with hypoxia, 5.10% oxygen, result dead): 10 min | Time in Hypoxia (mice [2]; ambient 24° C., 8 minutes in 80 ppm H2S prior, 4.00% oxygen, result dead): 8 min | Time in Hypoxia (mice [2]; ambient 24° C., 8 minutes in 80 ppm H2S prior, 4.50% oxygen, result dead): 23 min | Time in Hypoxia (mice [2]; ambient 24° C., 8 minutes in 80 ppm H2S prior, 5% oxygen, result dead): 20 min | Time in Hypoxia (mice [2]; ambient 24° C., 8 minutes in 80 ppm H2S prior, 5.00% oxygen, result life): 50 min | Time in Hypoxia (mice [2]; ambient 24° C., 10 minutes in 90 ppm H2S prior, 5% oxygen, result dead): 56 min | Time in Hypoxia (mice [2]; ambient 30° C., 8 minutes in 80 ppm H2S prior, 4.50% oxygen, result dead): 6 min | time survived in hypoxia (mice [2]; pre-equilibrated to 80 ppm H2S for 3 hours, 5.2% oxygen, still doing well 3 weeks later): 11 min | survival (Drosophila melanogaster; 50 ppm H2S in room air prior to 18.5 h anoxia): 25% | survival (Drosophila melanogaster; 50 ppm H2S present in the CO2 pretreatment and removed as anoxia is established, 20 h): 35% | survival (Drosophila melanogaster; CO2 10 min, H2S/CO2 10 min, N2/H2S 10 min, then N2, 15 h anoxic exposure, low-flow): 50% | rats surviving hemorrhage and 3 hour shock period (rats [3]; 300 ppm H2S): 6/7 | Complete recovery (rats [3]; 300 ppm H2S from 30% blood loss to end of 40 minute bleed): 85.7% (6/7) | CO2 production (VCO2) (rats [3]; 15 minutes post bleed): 17 ± 3 mL/min/kg | Blood CO2 content (pCO2) (rats [3]; End of bleed): 35 +/− 6 mmHg | Blood Lactate (rats [3]; End of bleed): 6.6 ± 1 mmol/L | Blood base excess (rats [3]; End of bleed): -5 ± 4 mmol/L | Blood bicarbonate content ([HCO3]) (rats [3]; End of bleed): 21 ± 3 mmol/L | Blood pH (rats [3]; End of bleed): 7.41 +/− 0.02 | CO2 production (VCO2) (rats [3]; End of bleed): 16 ± 2 mL/min/kg | CO2 production (VCO2) (rats [3]; Mid-bleed): 20 ± 2 mL/min/kg | Blood CO2 content (pCO2) (rats [3]; Pre-bleed): 45 +/− 6 mmHg | Blood Lactate (rats [3]; Pre-bleed): 1.4 ± 0.5 mmol/L | Blood base excess (rats [3]; Pre-bleed): 8 ± 2 mmol/L | Blood bicarbonate content ([HCO3]) (rats [3]; Pre-bleed): 32 ± 3 mmol/L | Blood pH (rats [3]; Pre-bleed): 7.46 +/− 0.03 | CO2 production (VCO2) (rats [3]; Pre-bleed): 25 ± 4 mL/min/kg | Time to death of non-survivors (rats [3]; after the end of the bleed, 300 ppm H2S): 174 min and 174 (1/7) min | depression in metabolic rate, Mouse (mice [4]): Yes 0.01% (Evidence of depression in metabolic rate of greater than 5-fold as judged by carbon dioxide production or oxygen consumption during a 6-hour treatment is described by “Yes”) | depression in metabolic rate, Rat (rats [5]): Yes 0.03% (Evidence of depression in metabolic rate of greater than 5-fold as judged by carbon dioxide production or oxygen consumption during a 6-hour treatment is described by “Yes”) | depression in metabolic rate, Dog (dogs): No 0.85% (“No” (reduction or less than a 5-fold reduction in these values is described as such) | core temperature (mice [6]): approximately 28 °C | survival of the hemorrhage (rats [7]; 2000 ppm H2S in room air at 20 minutes of the 40 minute bleed, generally 1 to 2 minutes, 7 out of 8): 88% | signs during exposure (rats [7]; rat, in vivo): apnea and dystonia | lethality (C. elegans nematodes): considerable lethality | progeny (C. elegans nematodes): same number of progeny | LD50 [8]: approximately 700 ppm | adverse effects, gross and histopathological examination [8]: no observed adverse effect | behavioral toxicity [8]: Significant reductions in motor activity, water maze performance and body temperature | perinatal toxicity [8]: no neuropathological effects | tolerability [8]: innocuous

From patent publication US8822535B2 (priority 2005, dated 2014)
